{
  "source": "patent US20220112225A1",
  "about": "“ANANDAMIDE COMPOUNDS” (priority 2019, published 2022)",
  "key": {"hMfsd2a": {"target": "T1, hMfsd2a (Homo sapiens, UniProt Q8NA29)", "T1 construct": "expressed in transfected cells; host or cells: HEK293", "T1 sequence (Q8NA29 1-530 isoform Q8NA29-2)": "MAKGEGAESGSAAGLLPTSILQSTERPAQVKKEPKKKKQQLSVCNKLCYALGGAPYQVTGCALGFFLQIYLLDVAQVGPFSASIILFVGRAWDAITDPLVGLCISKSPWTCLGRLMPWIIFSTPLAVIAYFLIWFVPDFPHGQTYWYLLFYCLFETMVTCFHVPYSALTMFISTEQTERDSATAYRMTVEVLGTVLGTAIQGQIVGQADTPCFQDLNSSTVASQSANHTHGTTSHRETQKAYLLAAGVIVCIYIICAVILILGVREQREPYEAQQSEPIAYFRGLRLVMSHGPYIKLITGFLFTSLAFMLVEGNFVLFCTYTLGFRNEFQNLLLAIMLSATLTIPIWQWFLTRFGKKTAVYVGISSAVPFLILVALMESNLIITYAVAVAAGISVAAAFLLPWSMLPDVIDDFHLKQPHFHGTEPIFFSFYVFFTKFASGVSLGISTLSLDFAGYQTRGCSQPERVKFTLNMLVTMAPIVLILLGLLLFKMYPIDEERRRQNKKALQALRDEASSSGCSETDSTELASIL", "assay": "In vitro Mfsd2a transport, UPLC-MS-MS analysis", "type": "cell-based", "conditions": "transfected HEK293 cells, 50 μM test compound, 1 hour", "description": "The assay was conducted in a low throughput 6-well format with HEK293 cells prepared and then transfected in duplicate wells with plasmids containing either the wildtype (WT) version of hMfsd2a, the D97A mutant version, or an empty vector as control. Uptake into the ceils was assessed by both thin-layer chromatography (TLC) and ultrahigh performance liquid chromatography hyphenated mass spectrometry.\nHEK293 cells were seeded at 6.25×10^5 per 6-well in 2 mL of DMEM with 10% FBS and 1% penicillin-streptomycin (P/S) media (Sigma) and incubated overnight at 37° C. in 5% CO2. Cells were checked for confluency the next morning. On a per well basis the following lipid mix was generated, 6 μL of Lipofectamine 2000 was added dropwise to 200 μL of OptiMEM, this was left to stand for 5 minutes at room temperature (RT). 1 μg of hMfsd2a WT, D97A or empty plasmid was prepared in 200 μL of OptiMEM as appropriate for each well; the Lipofectamine 2000 in OptiMEM solution was then added dropwise to a total volume of 400 μL (this can be scaled to support the number of wells/plates to be assayed). This transfection preparation was then incubated at RT for 20 minutes. DMEM with 10% FBS and no P/S media was warmed to 37° C., the HEK293 plate media was changed and the cells washed carefully with 1 mL of the warmed DMEM with 10% FBS no P/S media, 1.6 mL of the warmed DMEM with 10% FBS no P/S media was then added to each well. 400 μL of the transfection preparation was then added dropwise to each well as appropriate and the plate was gently swirled in a circular motion. The plate was then incubated overnight at 37° C. in 5% CO2.\nCompound Incubation and Preparation of Analysis Samples Compound stock solutions were prepared in a 12% BSA in PBS solution such that a 40 μL spike into 2 ml, of plain DMEM would yield a concentration of 50 μM of test compound (the compound treated media). Remaining compound stock solution in 12% BSA in PBS was frozen at −20° C. to allow for media stability testing. The HEK293 6-well plate was removed from the incubator and the wells gently rinsed with 1 mL of plain DMEM that had been prewarmed to 37° C. 2 mL of the compound treated media was then added to each well. A 100 μL sample of the compound treated media was sampled to represent a T=0 h sample; 5 μL of this sample (the remainder was reserved and frozen in case of re-analysis being required) was diluted with 45 μL of DMEM and crashed with 50 μL MeCN in a 96-well plate which was sealed and kept on ice. The HEK293 6-well plate was then incubated at 37° C. in 5% CO2 for 1 hour, the plate was then removed from the incubator and a 100 μL sample of media taken from each well to represent a T=1 h sample; 5 μL of this sample (the remainder was reserved and frozen in case of re-analysis being required) was diluted with 45 μL of DMEM and crashed with 50 μL MeCN into the 96-well plate which was re-sealed and stored at −20° C. The remaining media was then removed from the HEK293 6-well plate, the wells were gently rinsed twice with 1 mL of 0.5% BSA in DMEM, the media was then removed and the 6-well plate allowed to dry completely at RT. 1 ml of 3:2 Hexane:Isopropanol (HIP) was added to each well in a fume cupboard and the plate allowed to stand for 30 minutes at RT without shaking. The HIP solution was then transferred to 2 mL Eppendorf tubes, and the process was repeated with a second 1 mL aliquot of HIP and the two aliquots combined. The HIP samples were then dried down under a nitrogen stream.\nHIP samples prepared as described above were reconstituted in 100 μL of MeCN, vortex mixed and inverted multiple times to ensure all surfaces of the Eppendorf tube were rinsed with the MeCN and finally pulse centrifuged. […]"}, "[1]": {"assay": "In vitro brain homogenate stability, mouse", "type": "in vitro ADME", "description": "Fresh rodents brains were snap frozen immediately after collection and the assay performed on the same day. Brains were pre-incubated at 37° C. before being spiked with test compound at 1 μM. Samples were collected across 6 time points (0, 10, 20, 30, 45 and 60 minutes) and crashed in cold acetonitrile containing an internal standard (Leucine Enkephalin) and kept on ice until all samples had been collected. The samples were then shaken and centrifuged. 100 μL of supernatant was transferred to a plate containing 50 μL of MilliQ water and mixed. These plates were analyzed by LC-MS/MS over the 6 time points, where the percentage of test compound remaining was calculated using the peak area of the initial timepoint (T=0 minutes) as 100%. The natural log of the percentage remaining was then calculated. The natural log of the percentage remaining versus time (minutes) was plotted on a graph and the gradient of this graph was used to calculate the elimination rate constant (K), The half-life (t1/2) of test compound was calculated using the natural log of 2 divided by the elimination rate constant. The percentage of Compound 2 formed is reported below in Tables 4-6. FIGS. 9A-9F show results of the brain homogenate stability conducted with representative compounds of the Examples."}},
  "data": [
    {"substance": "2-(5Z,8Z,11Z,14Z)-icosa-5,8,11,14-tetraenamidoethyl (trimethylammonio) ethylphosphate [Compound 3]", "values": [
      {"measurement": "Transport via Mfsd2a: concentration in HIP samples from WT cells compared with D97A mutant Mfsd2a and/or empty vector cells", "setting": "hMfsd2a", "result": "transported via Mfsd2a"},
      {"measurement": "Mouse t1/2", "setting": "[1]; 37° C., test compound at 1 μM", "result": 1.67, "unit": "h"},
      {"measurement": "Clearance in brain homogenate stability study (in words)", "setting": "[1]; one hour incubation, increasing formation of Compound 2", "result": "demonstrated a level of clearance"}
    ]}
  ]
}
